BindingDB's records for doi:10.1002/(SICI)1098-2396(200002)35:2<79::AID-SYN1>3.0.CO;2-X (Institut De Recherches Servier, 2000)
pKi: −log10 of the molar value. “And” between values parts separate entries of the source, which are not always exact repeats. Identical values can stand only once.

Tests used:
[1] = molecular target: T1, 5-hydroxytryptamine receptor 2C (Sus scrofa, UniProt K7GSR7)
T1 sequence (K7GSR7 whole entry): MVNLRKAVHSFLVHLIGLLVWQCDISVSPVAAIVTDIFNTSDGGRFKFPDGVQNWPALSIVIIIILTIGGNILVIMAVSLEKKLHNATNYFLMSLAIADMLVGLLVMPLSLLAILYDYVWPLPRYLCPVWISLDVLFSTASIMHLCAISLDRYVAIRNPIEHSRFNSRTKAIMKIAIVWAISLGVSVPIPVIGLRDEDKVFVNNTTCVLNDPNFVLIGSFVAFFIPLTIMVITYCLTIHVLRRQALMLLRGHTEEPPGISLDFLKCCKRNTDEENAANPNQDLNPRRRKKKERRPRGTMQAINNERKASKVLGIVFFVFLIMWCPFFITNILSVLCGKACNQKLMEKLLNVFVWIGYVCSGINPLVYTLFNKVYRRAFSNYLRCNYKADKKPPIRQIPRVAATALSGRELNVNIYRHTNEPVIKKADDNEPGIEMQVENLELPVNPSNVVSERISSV

[2] = molecular target: T2, 5-hydroxytryptamine receptor 3A (Mus musculus, UniProt P23979)
T2 sequence (P23979 whole entry): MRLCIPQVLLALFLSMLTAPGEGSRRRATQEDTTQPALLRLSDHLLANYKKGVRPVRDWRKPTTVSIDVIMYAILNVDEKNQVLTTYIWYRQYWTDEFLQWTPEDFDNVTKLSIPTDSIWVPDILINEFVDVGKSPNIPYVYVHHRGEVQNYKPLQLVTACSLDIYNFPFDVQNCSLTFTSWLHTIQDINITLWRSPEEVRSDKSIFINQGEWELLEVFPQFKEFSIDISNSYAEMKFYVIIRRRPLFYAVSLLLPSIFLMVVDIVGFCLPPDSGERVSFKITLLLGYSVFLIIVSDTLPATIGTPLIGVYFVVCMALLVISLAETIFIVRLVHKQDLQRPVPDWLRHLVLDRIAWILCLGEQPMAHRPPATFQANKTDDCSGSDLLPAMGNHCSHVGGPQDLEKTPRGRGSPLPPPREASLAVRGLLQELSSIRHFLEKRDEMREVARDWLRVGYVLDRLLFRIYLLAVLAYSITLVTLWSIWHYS

[3] = molecular target: T3, Alpha-2A adrenergic receptor (Homo sapiens, UniProt P08913)
T3 sequence (P08913 whole entry): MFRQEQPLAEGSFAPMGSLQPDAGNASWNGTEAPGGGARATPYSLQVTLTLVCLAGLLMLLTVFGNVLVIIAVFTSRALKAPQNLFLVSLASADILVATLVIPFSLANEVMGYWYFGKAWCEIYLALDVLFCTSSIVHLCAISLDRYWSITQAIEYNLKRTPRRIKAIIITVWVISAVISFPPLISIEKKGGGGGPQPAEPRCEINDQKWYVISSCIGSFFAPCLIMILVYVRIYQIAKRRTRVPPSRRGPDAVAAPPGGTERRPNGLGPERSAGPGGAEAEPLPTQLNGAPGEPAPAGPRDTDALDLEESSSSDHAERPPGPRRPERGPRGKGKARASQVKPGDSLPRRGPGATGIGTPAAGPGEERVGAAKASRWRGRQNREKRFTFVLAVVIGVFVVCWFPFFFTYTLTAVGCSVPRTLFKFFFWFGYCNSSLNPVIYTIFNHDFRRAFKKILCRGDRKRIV

[4] = molecular target: 5-hydroxytryptamine receptor 1B (Cavia porcellus, UniProt O08892)
[5] = molecular target: 5-hydroxytryptamine receptor 1D (Homo sapiens, UniProt P28221)
D(2) dopamine receptor = D(2) dopamine receptor (Homo sapiens, UniProt P14416)
Sequence of D(2) dopamine receptor (P14416 whole entry): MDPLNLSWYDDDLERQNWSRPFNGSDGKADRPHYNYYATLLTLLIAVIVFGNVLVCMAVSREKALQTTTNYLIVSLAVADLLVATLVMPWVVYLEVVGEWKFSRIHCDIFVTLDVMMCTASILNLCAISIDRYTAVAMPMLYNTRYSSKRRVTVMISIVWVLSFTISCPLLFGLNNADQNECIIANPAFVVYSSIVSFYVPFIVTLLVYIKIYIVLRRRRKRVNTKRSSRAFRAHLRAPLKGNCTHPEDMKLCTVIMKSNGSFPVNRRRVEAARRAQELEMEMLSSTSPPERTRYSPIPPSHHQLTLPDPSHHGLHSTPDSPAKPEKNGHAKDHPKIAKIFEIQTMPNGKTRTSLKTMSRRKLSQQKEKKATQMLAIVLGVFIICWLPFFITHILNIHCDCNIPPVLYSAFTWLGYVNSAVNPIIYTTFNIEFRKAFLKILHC

Sequence of 5-hydroxytryptamine receptor 1D (P28221 whole entry): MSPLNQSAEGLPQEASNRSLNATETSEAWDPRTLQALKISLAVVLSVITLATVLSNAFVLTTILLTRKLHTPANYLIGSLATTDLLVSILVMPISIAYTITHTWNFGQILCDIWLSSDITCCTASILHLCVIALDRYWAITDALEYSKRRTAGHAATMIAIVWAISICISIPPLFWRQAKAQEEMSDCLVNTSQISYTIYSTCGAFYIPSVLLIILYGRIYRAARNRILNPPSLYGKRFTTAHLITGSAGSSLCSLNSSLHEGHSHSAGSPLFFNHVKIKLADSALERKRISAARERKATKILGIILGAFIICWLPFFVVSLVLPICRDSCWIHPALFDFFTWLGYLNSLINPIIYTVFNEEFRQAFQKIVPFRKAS
Sequence of 5-hydroxytryptamine receptor 1B (O08892 whole entry): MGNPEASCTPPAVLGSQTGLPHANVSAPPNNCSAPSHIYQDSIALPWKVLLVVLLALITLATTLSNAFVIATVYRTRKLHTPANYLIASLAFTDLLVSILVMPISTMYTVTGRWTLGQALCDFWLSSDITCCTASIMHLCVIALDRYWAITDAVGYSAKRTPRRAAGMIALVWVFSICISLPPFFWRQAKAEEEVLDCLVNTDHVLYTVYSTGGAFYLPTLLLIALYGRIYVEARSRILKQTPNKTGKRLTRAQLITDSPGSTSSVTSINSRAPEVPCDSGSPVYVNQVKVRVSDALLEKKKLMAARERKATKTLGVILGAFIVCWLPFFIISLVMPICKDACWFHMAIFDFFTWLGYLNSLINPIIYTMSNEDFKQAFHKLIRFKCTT

With `NCCc1c[nH]c2ccccc12` [1H-indole-3-ethanamine] the pKi [1] was 7.10.

`Cc1nccn1CC1CCc2c(c3ccccc3n2C)C1=O` (configuration not stated) [NSC_68647] showed a pKi [2] of 8.40.

For `COC1(C2=NCCN2)COc2ccccc2O1` (configuration not stated) [RX821002], the pKi [3] was 9.00.

Compound `NCCc1c[nH]c2ccc(O)cc12` [[3H]-5-HT] has a pKi [4] of 8.60.

With `COC(=O)[C@@H]1[C@H]2C[C@H]3c4[nH]c5ccccc5c4CCN3C[C@@H]2CC[C@@H]1O` [yohimbic acid methyl ester] the pKi [5] was 7.70 and 7.60, the pKi (D(2) dopamine receptor) was 6.40 and the pKi [4] was 7.30.
